Measured values reported in patent US20260306460A1, “COMPOSITION FOR REMOVING AND INHIBITING SENESCENT CELLS, AND USES THEREOF” (LIFECEUTIX CO., LTD., priority 2023, published 2026).

Columns and labels:
Type in all cases: in vivo, mouse
[1] = test system: naturally aged C57BL6J mice; assay: Geriatric depression and anxiety in aged mice, Example 21-8; settings: for amount of SASP, p16, SA-β-gal, lipofuscin / symptoms of geriatric depression and anxiety: aged mice
Description: The amount of senescent-associated secretory factor (SASP) in serum and tissues collected from mice of Examples 21-5 and 21-6 was reduced by treatment with LX-5701, LX-2101, or LX-2102. It was confirmed that removing senescent cells, which increase with aging in mice, and effectively reducing the amount of senescent-associated secretory factor (SASP) can improve symptoms of geriatric depression and anxiety.

[2] = test system: bleomycin-induced scleroderma C57BL6J mice; assay: Bleomycin scleroderma in mice (p16, COL1A1 mRNA, dermal thickness), Example 24-2, Table 48; settings: daily for 21 days; for p16 mRNA: untreated 100 (±8.8); for Col1a1 mRNA: untreated 100 (±13.2); for Dermal Thickness: untreated 459 (±38.7)
Procedure: Eight-week-old male C57BL6J mice (KRIBB Laboratory Animal Resource Center) were acclimated to the experimental environment for one week. Then, 100 μl of the anticancer drug bleomyxin (1 mg/ml) was administered subcutaneously every other day to induce scleroderma for more than three weeks. Mice with scleroderma were randomly assigned to experimental and control groups. LX-403 was mixed with a 10% ethanol solution of PEG400 and administered orally at a concentration of 25 mg/kg daily for 21 days or administered directly to the skin at a concentration of 1 μM. LX-1801 was mixed with a solution of 4% DMSO, 30% PEG300, and 5% Tween80 in distilled water and administered subcutaneously at a concentration of 0.4 μM daily for 21 days. LX-2001 was mixed in PBS and administered intradermally at a concentration of 2 μM daily for 21 days. LX-2002 was mixed in distilled water with 4% DMSO, 30% PEG300, and 5% Tween80 and administered intradermally at a concentration of 2 μM daily for 21 days. […] LX-2005 was mixed in distilled water with 4% DMSO, 30% PEG300, and 5% Tween80 and administered intradermally at a concentration of 90 μM daily for 21 days. LX-2007 was mixed in distilled water with 4% DMSO, 30% PEG300, and 5% Tween80 and administered intradermally at a concentration of 90 μM daily for 21 days. […] LX-3002 was mixed with distilled water with 4% DMSO, 30% PEG300, 5% tween80 and administered orally at 10 mg/kg daily for 21 days. […] LX-5411 was mixed with 5% PBS and administered orally at 10 mg/kg daily for 21 days or subcutaneously at 3 μM. LX-5701 was mixed with PBS and administered orally at 360 mg/kg daily for 21 days. LX-6807 was mixed in saline and administered intraperitoneally at a concentration of 1 mg/kg daily for 21 days. The control group was administered only the solution in the same volume. After the end of drug administration, mice were sacrificed in the same manner as in Example 7-2 of WO2023-085787 A1, RNA was extracted from skin tissue, and the synthesized cDNA was used to perform and analyze the mRNA amounts of p16 and collagen (COL1A1) by qRT-PCR (quantitative real-time PCR). In addition, to measure the degree of bleomycin-induced skin hardening, skin frozen sections were stained with H/E (Hematoxylin/Eosin), and the thickness of the dermis was observed under an optical microscope.

[3] = test system: naturally aged C57BL6J mice; assay: Frailty (open field, wire hanging, grip strength, muscle and fat tissue) in naturally aged mice, Example 21-7, Table 23; settings: for Fat Mass (g): inguinal and epididymal fat, untreated aged 0.82 (±0.19); for Muscle Mass (g): quadriceps and gastrocnemius, untreated aged 0.64 (±0.06); for Grip Sterenght Test Strength (%) / Open Field Test Time in Center (%) / Wire Hanging Test Time (%): untreated aged = 100%
Procedure: (§1) 22-month-old female C57BL6J mice (KRIBB Laboratory Animal Resource Center) were acclimated to the experimental environment for one week, after which the aged mice were randomly assigned to experimental and control groups. Eight-week-old, non-aged mice served as controls. LX-403 was mixed in a 10% ethanol solution of PEG400 and administered orally at a concentration of 25 mg/kg daily for 21 days, or administered to the skin, joints, or eyes at a concentration of 1 μM. LX-1801 was mixed in distilled water with 4% DMSO, 30% PEG300, and 5% Tween80 and administered to the skin, joints, or eyes at a concentration of 0.4 μM daily for 21 days. LX-2001 was mixed in PBS and administered to the skin, joints, or eyes at a concentration of […] daily for 21 days. LX-2002 was mixed in distilled water with 4% DMSO, 30% PEG300, and 5% Tween80 and administered to the skin, joints, or eyes at a concentration of 2 μM daily for 21 days. […] LX-2005 was mixed in distilled water with 4% DMSO, 30% PEG300, and 5% Tween80 and administered to the skin, joints, or eyes at a concentration of 90 μM daily for 21 days. LX-2007 was mixed in distilled water with 4% DMSO, 30% PEG300, and 5% Tween80 and administered to the skin, joints, or eyes at a concentration of 90 μM daily for 21 days. […] LX-3002 was mixed in distilled water with 4% DMSO, 30% PEG300, and 5% Tween80 and administered orally at a concentration of 10 mg/kg daily for 21 days. […] LX-5411 was mixed in 5% PBS and administered orally at a concentration of 10 mg/kg daily for 21 days or administered to the skin, joints, or eyes at a concentration of 3 μM. LX-5701 was mixed in PBS and administered orally at a concentration of 360 mg/kg daily for 21 days. LX-6807 was mixed in saline and administered intraperitoneally at a concentration of 1 mg/kg daily for 21 days. LX-2101 or LX-2102 was mixed in PBS solution with 5% DMSO and administered intraperitoneally at a concentration of 20 mg/kg or 10 mg/kg, respectively, daily for 21 days. The control group received only the solution in the same volume. After the end of drug administration, the methods described in each example below were performed.
To analyze frailty due to aging in mice, an activity test (open field test), an endurance test (wire hanging test), and a muscle strength and grip strength test (grip strength test) were performed using the same method as in Example 7-7 of WO2023-085787 A1. The table below quantitatively represents the results of activity, endurance, muscle strength, and grip strength, which are criteria for assessing frailty, under conditions in which aging was induced and the test compound was not administered or administered. The amount of each evaluation after aging was calculated as 100% and compared with the amount of each evaluation after treatment with the drug of the present invention.

[4] = test system: naturally aged C57BL6J mice; assay: Joint aging (arthritis marker mRNA) in naturally aged mice, Example 21-12, Table 27
Procedure: as §1
RNA was extracted from joint tissue as described in Example 7-2 of WO2023-085787 A1, and qRT-PCR was performed using the synthesized cDNA. […] To analyze joint pain due to joint aging, hotplate analysis was performed. Specifically, thermal pain thresholds were measured using a hot plate. After acclimating mice to a temperature of 30° C. for 10 minutes, the time required for hind paw licking or jumping responses to occur at 55° C. was measured. To prevent tissue damage, the response was measured for less than 30 seconds, and the average value was used from five measurements.

Molecule | amount of SASP, p16, SA-β-gal, lipofuscin [1] | symptoms of geriatric depression and anxiety [1] | p16 mRNA [2] | Col1a1 mRNA [2] | Dermal Thickness [2] | Fat Mass (g) [3] | Muscle Mass (g) [3] | Grip Sterenght Test Strength (%) [3] | Open Field Test Time in Center (%) [3] | Wire Hanging Test Time (%) [3] | Col2a1 mRNA (fold) [4] | amount of SASP in serum and tissues ([1]; mice of Examples 21-5 and 21-6)
CCCC\C=C/C=C/C=C\CCCCCCCC(=O)O [LX-2707, Punicic acid] | reduced | improved | 67.5 (±4.7) % | 64.1 (±2.0) % | 389 (±23.6) μm | 0.98 (±0.20) g | 0.67 (±0.07) g | 117 (±3.6) % | 198 (±19.4) % | 135 (±13.3) % | – | –
C[C@@H]1CC[C@@]23C[C@H](O)C(=O)[C@@]2(O)[C@]1(C)[C@H](OC(=O)CCl)C[C@@H](C1=CCn2c(=O)n(-c4ccccc4)c(=O)n2C1)[C@@H]3C [LX-1801, (2S,3aS,4S,5R,7R,8S,8aS,11R)-7-(1,3-Dioxo-2-phenyl-2,3,5,8-tetrahydro-1H-[1,2,4]triazolo[1,2-a]pyridazin-6-yl)-2,3a-dihydroxy-4,8,11-trimethyl-3-oxooctahydro-1H-4,8a-propanoazulen-5-yl 2-Chloroacetate] | – | – | 35.4 (±5.6) % | 47.8 (±4.7) % | 418 (±42.3) μm | – | – | – | – | – | 2.6 (±0.2) fold | –
CC1(C)CC[C@]2(C(=O)O)CC[C@]3(C)C(=CC[C@@H]4[C@@]5(C)CC[C@H](O)C(C)(C)[C@@H]5CC[C@]43C)[C@@H]2C1 [LX-2003, Oleanolic acid] | – | – | 72.4 (±5.8) % | 73.8 (±3.5) % | 411 (±81.3) μm | – | – | – | – | – | 1.9 (±0.2) fold | –
C=C(C)[C@@H]1CC[C@]2(C(=O)O)CC[C@]3(C)[C@H](CC[C@@H]4[C@@]5(C)CC[C@H](O)C(C)(C)[C@@H]5CC[C@]43C)[C@@H]12 [LX-2005, Betulinic acid] | – | – | 62.8 (±4.6) % | 68.2 (±2.4) % | 432 (±61.7) μm | – | – | – | – | – | 2.2 (±0.1) fold | –
C[C@H]1[C@H](C)CC[C@]2(C(=O)O)CC[C@]3(C)C(=CC[C@@H]4[C@@]5(C)C[C@@H](O)[C@H](O)C(C)(C)[C@@H]5CC[C@]43C)[C@H]12 [LX-2002, Corosolic acid] | – | – | 51.3 (±2.6) % | 71.2 (±4.2) % | 427 (±60.1) μm | – | – | – | – | – | 1.7 (±0.3) fold | –
COC(=O)[C@H]1Cc2c([nH]c3ccccc23)[C@H](c2ccc(S(C)(=O)=O)cc2)N1C(=O)CCl [LX-5401, methyl (1S,3R)-2-(2-chloroacetyl)-1-(4-(methylsulfonyl)phenyl)-2,3,4,9-tetrahydro-1H-pyrido[3,4-b]indole-3-carboxylate] | reduced | improved | 61.2 (±6.7) % | 74.6 (±2.4) % | 401 (±46.3) μm | – | – | – | – | – | – | –
O=C(C(C[N+](=O)[O-])=NO)N1CCN(C(c2ccc(Cl)cc2)c2ccc(Cl)cc2)CC1 [LX-403] | – | – | 34.7 (±4.1) % | 45.7 (±4.5) % | 356 (±36.3) μm | – | – | – | – | – | 2.9 (±0.2) fold | –
Tocofersolan [LX-3001] | reduced | improved | 76.1 (±5.5) % | 81.4 (±2.5) % | 421 (±28.4) μm | 0.95 (±0.12) g | 0.70 (±0.1) g | 115 (±4.7) % | 187 (±12.9) % | 126 (±11.4) % | – | –
CC1(C)C=C2[C@H]3CC[C@@H]4[C@@]5(C)CCC(=O)C(C)(C)[C@@H]5CC[C@@]4(C)[C@]3(C)CC[C@@]2(C(=O)O)CC1 [LX-2007, Moronic acid] | – | – | 75.1 (±3.5) % | 80.5 (±4.0) % | 421 (±83.6) μm | – | – | – | – | – | 1.6 (±0.2) fold | –
COC(=O)[C@]12CCC(C)(C)C[C@H]1[C@H]1C(=O)C=C3[C@@]4(C)C=C(C#N)C(=O)C(C)(C)[C@@H]4CC[C@@]3(C)[C@]1(C)CC2 [LX-2102, Bardoxolone methyl] | – | – | – | – | – | 0.97 (±0.16) g | 0.76 (±0.05) g | 116 (±9.2) % | 109 (±8.6) % | 120 (±7.5) % | – | reduced
COC(=O)c1ccc([C@H]2c3[nH]c4ccccc4c3C[C@H](C(=O)OC)N2C(=O)CCl)cc1 [LX-405] | reduced | improved | – | – | – | – | – | – | – | – | – | –
C[C@H]1[C@H](C)CC[C@]2(C(=O)O)CC[C@]3(C)C(=CC[C@@H]4[C@@]5(C)CC[C@H](O)C(C)(C)[C@@H]5CC[C@]43C)[C@H]12 [LX-2001, Ursolic acid] | – | – | 64.2 (±4.4) % | 62.8 (±5.6) % | 394 (±78.4) μm | – | – | – | – | – | 1.8 (±0.2) fold | –
